“Also recorded” adds a separate entry of the source. Peptide text beside a SMILES is read from it.
Key:
SCC12B.2 cells = experiment: Caspase-3/7 Glo assay (apoptosis); type: cell-based, human; details: ES1P2 20 μM; pS 30 μM; pT 20 μM, 24 hours; vs vehicle
Experimental: Apoptosis was assessed using a Caspase-3/7 Glo assay (Promega Corporation, Madison, Wis., USA) in a 96-well white-bottom plate (BRANDplates, Wertheim, Germany) according to the manufacturer's instructions. Cells were seeded at a density of 8×10^3 cells/well and incubated overnight before treatments or transfections. Luminescence was read using a Cytation 5 multi-mode plate reader (BioTek Instruments, Winooski, Vt., USA).
Apoptosis was assessed using a Caspase-3/7 Glo assay (Promega) in a 96-well white-bottom plate (BRANDplates, Wertheim, Germany). Cells were seeded at a density of 8×10^3 cells/well and Caspase-3/7 glo was performed 24 hours post-treatment according to the manufacturer's instructions and read using a Cytation 5 multi-mode plate reader (BioTek, Instruments, Winooski, Vt., USA).

[1] = tested on: SCC13 cells xenograft tumors; experiment: Mouse SCC tumor xenografts (TUNEL, immunofluorescence, tumor growth); type: in vivo; details: for increase in number of TUNEL-positive SCC cells compared to vehicle: intratumoral 2.5 nmol/50 μL, NCG mice, SCC13; for tumor volume compared to vehicle-treated xenografts: mouse xenograft tumors; for P-Akt (S473) levels in SCC xenografts (immunofluorescence) / Survivin levels in SCC xenografts (immunofluorescence): vs vehicle-treated xenografts
Experimental: Immunofluorescence was performed using an alexa-fluor488-conjugated secondary antibody (IgG mouse or rabbit) (Invitrogen) with 4′,6-diamidino-2-phenylindole (DAPI) (Vector Labs, Burlingame, Calif., USA) to identify nuclei. Cellular localization of immunohistochemistry signal was determined in a double-blinded manner. Slides were digitalized and fluorescence intensity was measured using Image analysis was performed using the Olympus VS120 Slide Scanner and Olyvia Analysis Software, respectively (Olympus, Tokyo, Japan).
Groups of NCG mice (NOD CRISPR Prkdc Il2r gamma/NjuCrl) (Charles River, Malvern, Pa., USA) were injected s.c. with 5×10^5 SCC13 cells suspended in 1:1 mixture of 1×PBS:Matrigel (Corning, Corning, N.Y., USA). Once the tumors reached a volume of 150 mm^3, tumors were treated with either vehicle (50 μL 1×PBS) or 2.5 nmol/50 μL of the targeting peptide ES1P2. Tumors were injected directly with either vehicle or ES1P2 daily for 2 days or every other day for 2 weeks and then harvested for analysis 24 hours after the last treatment. Tumors were fixed overnight in 10% buffered formalin (Thermo Fisher) and then switched to 70% ethanol the following day. All procedures were performed in accordance with the guidance of Creighton University Institutional Animal Care and Use Committee.
TUNEL (Terminal deoxynucleotidyl transferase dUTP nick end labeling) was carried out using Promega DeadEnd Fluorometric TUNEL system in accordance with the manufacturer's instructions (Promega). Cells were treated with DAPI (Vector Labs) to locate the nuclei within cells. […] Slides were digitalized and apoptotic nuclei counted using an Olympus VS120 Slide Scanner (Olympus).
Immunostaining was performed using antibodies recognizing P-Akt (S473) (Thermo Fisher) and Survivin (Cell Signaling, Danvers, Mass., USA), with alexa-fluor488-conjugated secondary antibody (IgG rabbit) (Invitrogen) with 4′,6-diamidino-2-phenylindole (DAPI) (Vector Labs, Burlingame, Calif., USA) to identify the nuclei. Slides were digitalized and analyzed using an Olympus VS120 Slide Scanner (Olympus, Shinjuku, Tokyo, JPN).
Groups of NCG mice (NOD CRISPR Prkdc Il2r gamma/NjuCrl) (Charles River, Malvern, Pa., USA) were injected s.c. with 5×10^5 human SCC13 cells suspended in 1:1 mixture of 1×PBS:Matrigel (Corning, Corning, N.Y., USA). Once the tumors reached 150 mm^3 in volume they were treated intratumorally with either vehicle (1× sterile PBS, pH, 7.5), pS, or pT (2.5 nmol/50 μL for each) daily for 2 days and then the mice were euthanized 24 hours after the second treatment. Tumors were fixed overnight in 10% neutral buffered formalin (Thermo Fisher) and then switched to 70% ethanol the following day before embedding and sectioning. All procedures were performed in accordance with the guidance of the Creighton University Institutional Animal Care and Use Committee.
TUNEL (terminal uridine nick-end labelling) assays were carried out using the Promega DeadEnd Fluorometric TUNEL system in accordance with the manufacturer's instructions (Promega Corporation, Madison, Wis., USA). Cells were treated with 4′,6-diamidino-2-phenylindole (DAPI) to locate the nuclei within cells. Slides were scanned and analyzed using an Olympus VS120 Slide Scanner (Olympus).

Structure (SMILES) | apoptosis of SCC cells (Caspase-3/7) (SCC12B.2 cells) | increase in number of TUNEL-positive SCC cells compared to vehicle ([1]; 2 daily treatments) | tumor volume compared to vehicle-treated xenografts [1] | P-Akt (S473) levels in SCC xenografts (immunofluorescence) [1] | Survivin levels in SCC xenografts (immunofluorescence) [1] | number of TUNEL-positive SCC cells compared to vehicle ([1]; intratumoral 2.5 nmol, 2 daily treatments) | reduction of SCC growth compared to vehicle ([1]; repeated intratumoral treatments of SCC xenografts, FIG. 1H/1I)
CSCC[C@H](NC(=O)[C@H](CCCNC(=N)N)NC(=O)[C@@H]1CCCN1C(=O)[C@H](C)NC(=O)[C@H](COP(=O)(O)O)NC(=O)[C@H](CC(N)=O)NC(=O)[C@H](CCC(N)=O)NC(=O)[C@H](CCCNC(=N)N)NC(=O)[C@H](CCC(N)=O)NC(=O)[C@@H](NC(C)=O)[C@@H](C)O)C(=O)N[C@@H](CC(C)C)C(=O)N[C@@H](CO)C(=O)N[C@@H](CO)C(=O)N[C@@H](CC(N)=O)C(N)=O [pS, Ac-Thr-Gln-Arg-Gln-Asn-Ser-(PO3^2−)-Ala-Pro-Arg-Met-Leu-Ser-Ser-Asn-NH2] (HELM PEPTIDE1{[ac].T.Q.R.Q.N.[O=C([C@H](COP(=O)(O)O)N[*:1])[*:2]].A.P.R.M.L.S.S.N.[am]}$$$$V2.0) | increased apoptosis | 25% | decreased volume | decreased | decreased | – | –
NCCCC[C@H](NC(=O)[C@H](Cc1c[nH]c2ccccc12)NC(=O)[C@H](Cc1ccc(O)cc1)NC(=O)[C@@H](N)Cc1c[nH]c2ccccc12)C(N)=O [ES1P2, Trp-Tyr-Trp-Lys-NH2] (H-WYWK-NH2) | increasing apoptosis to a statistically significant degree | – | decreased tumor growth; also recorded: reduced tumor volume | decreased | decreased | more than doubled | approximately one-third
CC(=O)N[C@@H](CCCNC(=N)N)C(=O)N[C@H](C(=O)N[C@@H](CCCCN)C(=O)N[C@@H](CO)C(=O)N[C@@H](CCCNC(=N)N)C(=O)N[C@H](C(=O)N[C@@H](Cc1c[nH]c2ccccc12)C(=O)N[C@@H](C)C(=O)NCC(=O)N[C@@H](CCC(=O)O)C(=O)N[C@@H](CCCCN)C(=O)N[C@@H](CO)C(=O)N[C@@H](CCCCN)C(=O)N[C@@H](CCCNC(=N)N)C(N)=O)[C@@H](C)OP(=O)(O)O)[C@@H](C)O [pT, Ac-Arg-Thr-Lys-Ser-Arg-Thr(PO3^2−)-Trp-Ala-Gly-Glu-Lys-Ser-Lys-Arg-NH2] (HELM PEPTIDE1{[ac].R.T.K.S.R.[C[C@@H](OP(=O)(O)O)[C@H](N[*:1])C(=O)[*:2]].W.A.G.E.K.S.K.R.[am]}$$$$V2.0) | increased apoptosis | 51% | decreased volume | decreased | decreased | – | –

Source: patent US11685766B2, “14-3-3 targeting peptides for cancer treatment” (Creighton University, priority 2019, dated 2023)
